Publication PMC3804063 (Journal of medicinal chemistry, 2013)
Several values for one entry are separate records, joined by “and”; a condition that tells them apart may be missing. Equal values may be shown once. Entries after “also recorded” stand apart in the source; their conditions may differ.

What was measured:
human CB2 receptors = human CB2 receptors (Homo sapiens, UniProt P34972); type: binding; settings: ratio of Ki to Ki of 1
[1] = molecular target: HEK293 cells stably expressing CB2 (Homo sapiens, UniProt P34972); type: cell-based; settings: 1 µM compound
CB1 S7.39A mutation = settings: cited from earlier work
CB2 W5.43(194)Y mutation = settings: cited from earlier work
CB2 W5.43A/F mutations = settings: suggesting a misfolded protein; cited from earlier work
CB2 S4.57(165)A mutation = settings: cited from earlier work
CB2 S4.53(161)A mutation = settings: cited from earlier work
[2] = test system: CB2 receptor-transfected Chinese hamster cells; settings: cited from earlier work

Sequence of HEK293 cells stably expressing CB2 (P34972 whole entry): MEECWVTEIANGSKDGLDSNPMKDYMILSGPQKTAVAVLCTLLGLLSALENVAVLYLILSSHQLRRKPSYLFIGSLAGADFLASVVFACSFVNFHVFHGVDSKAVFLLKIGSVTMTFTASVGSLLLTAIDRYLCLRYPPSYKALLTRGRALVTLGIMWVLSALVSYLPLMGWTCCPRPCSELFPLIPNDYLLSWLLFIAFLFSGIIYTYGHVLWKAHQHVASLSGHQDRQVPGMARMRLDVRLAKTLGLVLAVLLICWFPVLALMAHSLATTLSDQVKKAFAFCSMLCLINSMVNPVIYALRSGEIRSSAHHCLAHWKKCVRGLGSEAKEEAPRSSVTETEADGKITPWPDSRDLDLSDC
Sequence of human CB2 receptors (P34972 whole entry): as above

Row | Compound | fold loss of CB2 affinity compared to 1 (human CB2 receptors) | antagonism of CP55940 effect in the cAMP assay [1] | other results
1 | Cc1ccc(Cn2cc(/C=C/[C@@H]3C(C)(C)[C@@H]4CC[C@@]3(C)C4)cc2-c2ccc(Cl)c(C)c2)cc1 [Compound 4, 5-(4-Chloro-3-methylphenyl)-1-[(4-methylphenyl)methyl]-3-[(E)-2-[(1S,2S,4R)-1,3,3-trimethylbicyclo[2.2.1]heptan-2-yl]ethenyl]-1H-pyrrole] | 547 fold | lack antagonist properties | –
2 | CCCCCCC(C)(C)c1ccc([C@@H]2C[C@H](O)CC[C@H]2CCCO)c(O)c1 [CP-55,940] | – | – | effect of mutation on binding (CB1 S7.39A mutation): loss of binding
3 | Cc1ccc(Cn2nc(C(=O)N[C@@H]3C[C@@H]4CC[C@@]3(C)C4(C)C)cc2-c2ccc(Cl)c(C)c2)cc1 [Compound 5, 5-(4-Chloro-3-methylphenyl)-1-[(4-methylphenyl)methyl]-N-[(1S,2R,4S)-1,7,7-trimethylbicyclo[2.2.1]heptan-2-yl]-1H-pyrazole-3-carboxamide] | 13 fold | antagonize the cAMP effects of CP55940 | –
4 | Cc1ccc(Cn2nc(C(=O)N[C@@H]3C(C)(C)[C@@H]4CC[C@@]3(C)C4)cc2-c2ccc(Cl)c(C)c2)cc1 [Compound 1, N-[(1S)-endo-1,3,3-trimethylbicyclo[2.2.1]heptan2-yl]-5-(4-chloro-3-methylphenyl)-1-[(4-methylphenyl)methyl]-1H-pyrazole-3-carboxamide] | – | antagonize the effects of CP-55,940; also recorded: antagonize the cAMP effects of CP55940 | effect of mutation on binding (CB2 W5.43(194)Y mutation): decrease in the binding; effect of mutation on binding (CB2 W5.43A/F mutations): no detectable binding; effect of mutation on binding (CB2 S4.57(165)A mutation): abolished the binding; effect of mutation on binding (CB2 S4.53(161)A mutation): abolished the binding; effect on high constitutive activity of CB2 [2]: inverse agonist
5 | Cc1cc(-c2cc(C(=O)N[C@@H]3C(C)(C)[C@@H]4CC[C@@]3(C)C4)nn2-c2ccccc2)ccc1Cl [Compound 6, 5-(4-Chloro-3-methylphenyl)-1-phenyl-N-{1,3,3-trimethylbicyclo[2.2.1]heptan-2-yl}-1H-pyrazole-3-carboxamide] | 42 fold | no antagonism; also recorded: lack antagonist properties | –
6 | CCCCCCC(C)(C)c1cc(O)c2c(c1)OC(C)(C)[C@@H]1CC=C(CO)C[C@@H]21 [HU210] | – | – | effect of mutation on binding (CB1 S7.39A mutation): reduction in binding
7 | Cc1ccc(Cn2cc(C(=O)N[C@@H]3C(C)(C)[C@@H]4CC[C@@]3(C)C4)cc2-c2ccc(Cl)c(C)c2)cc1 [Compound 3, 5-(4-Chloro-3-methyl-phenyl)-1-(4-methyl-benzyl)-1H-pyrrole-3-carboxylic acid (1,3,3-trimethyl-bicyclo[2.2.1]hept-2-yl)-amide] | 7 fold and 6.8 fold | more potent CB2 antagonist than 1; also recorded: antagonize the cAMP effects of CP55940 | –
8 | Cc1ccc(Cn2nc(/C=C/[C@@H]3C(C)(C)[C@@H]4CC[C@@]3(C)C4)cc2-c2ccc(Cl)c(C)c2)cc1 [Compound 2, 5-(4-Chloro-3-methylphenyl)-1-(4-methyl-benzyl)-3-[(E)-2-endo-(1,3,3-trimethyl-bicyclo[2.2.1]hept-2-yl)-vinyl]-1H-pyrazole] | 236 fold | lack antagonist properties | –
